Test results as given in patent US20230117328A1, “METHODS TO TREAT CANCER USING (R)-N-(3-FLUORO-4-((3-((1-HYDROXYPROPAN-2-YL)AMINO)-1H-PYRAZOLO[3,4-B]PYRIDIN-4-YL)OXY)PHENYL)-3-(4-FLUOROPHENYL)-1-ISOPROPYL-2,4-DIOXO-1,2,3,4-TETRAHYDROPYRIMIDINE-5-CARBOXAMIDE” (Array BioPharma Inc., priority 2020, published 2023).
Like-named read-outs stand apart in the source and are kept apart here.

Test system: female Sprague Dawley rats
Settings: for ocular histopathology findings, Day 28: 10 rats
[1] = 100 mg/kg PO QD Days 1-14 (Group 4)
[2] = 200 mg/kg PO QD Days 1-14 (Group 5)
[3] = 200 mg/kg PO QD Days 1-14 (Group 5), 9 rats

CC(C)n1cc(C(=O)Nc2ccc(Oc3ccnc4[nH]nc(N[C@H](C)CO)c34)c(F)c2)c(=O)n(-c2ccc(F)cc2)c1=O.Cl [Compound 1 HCl, (R)—N-(3-fluoro-4-((3-((1-hydroxypropan-2-yl)amino)-1H-pyrazolo[3,4-b]pyridin-4-yl)oxy)phenyl)-3-(4-fluorophenyl)-1-isopropyl-2,4-dioxo-1,2,3,4-tetrahydropyrimidine-5-carboxamide hydrochloride]
ocular histopathology findings, Day 56 (100 mg/kg PO QD Days 1-7 (Group 2), recovery necropsy, 5 rats): unilateral minimal diffuse atrophy of the ONL which was considered an equivocal change | ocular histopathology findings, Day 28 (100 mg/kg PO QD Days 1-7 (Group 2; Test Article 1, Schedule 1)): No test article-related observations | incidence of retinal changes (overall) [1]: low incidence | reversibility of ocular (retinal) changes [1]: did not reverse | animals with ocular (retinal) changes, Day 28 (100 mg/kg PO QD Days 1-14 (Group 4; Test Article 1, Schedule 2), 9 rats): one animal (4F-7) had moderate atrophy of the outer nuclear layer (ONL) of the retina | ocular histopathology findings, Day 28 (200 mg/kg PO QD Days 1-7 (Group 3; Test Article 2, Schedule 1)): No test article-related observations | incidence of retinal changes (overall) [2]: high incidence | reversibility of ocular (retinal) changes [2]: did not reverse | animals with mild atrophy of ONL (thinning to approximately 6-7 nuclei), Day 28 [3]: one animal | animals with minimal atrophy of ONL (thinning to approximately 7-8 nuclei), Day 28 [3]: two animals | animals with minimal degeneration of the rods and cones layer, Day 28 [3]: six animals | animals with moderate atrophy of ONL (thinning to approximately 4-5 nuclei), Day 28 [3]: five animals | animals with moderate degeneration of rod and cone processes, Day 28 [3]: two animals | animals with ocular (retinal) changes, Day 28 (200 mg/kg PO QD Days 1-14 (Group 5; Test Article 2, Schedule 2), 9 rats): retinal changes were observed in eight animals | tolerability (body weight, clinical observations, deaths) (female rats, 100 or 200 mg/kg PO QD for 7 or 14 days): well tolerated with no effects on body weight, adverse clinical observations or deaths related to test article
